{
  "source": "patent US11926826B2",
  "about": "“Twist signaling inhibitor compositions and methods of using the same” (City of Hope, priority 2016, dated 2024)",
  "key": {"Ov8GFP-TWIST1 cells": {"tested_on": "Ov8GFP-TWIST1 cells", "assay": "SRB assay, cisplatin plus PI3K inhibitor LY294002", "type": "cell-based, human", "experimental": "Sulphorhodamine B assays. Cells were plated at 5,000 per well in normal medium in 96 well plates (100 μL/well), n=6 per drug concentration, per condition. Cells were allowed to adhere overnight, and then cisplatin was added. Cisplatin was prepared at 2× concentration in 100 μL normal medium, and then added to cells to yield 200 μL at 1×. Following 3 day incubation with cisplatin, medium was removed and cells were fixed with 10% trichloroacetic acid (TCA, 100 μL/well) at 4° C. for 1 hr. TCA was then removed and wells were rinsed with 200 μl water and allowed to air dry 10 min. […] Plates were air dried and excess SRB adhered to the walls of the wells was removed with a cotton swab. Finally, SRB was solubilized in 10 mM Tris base (200 μL/well) and absorbance was measured at 570 nm on a SpectraMax Plus plate reader (Molecular Devices, Sunnyvale, CA). Readings for each condition were normalized to untreated wells from the same condition. Cisplatin concentrations were adjusted to fit experimental demands. […] For Akt studies, the PI3K inhibitor LY294002 was used to inhibit Akt activation (FIGS. 25A-25D), and was obtained from Cell Signaling Technology (Danvers, MA)."}, "TWIST1 [1]": {"tested_on": "TWIST1", "assay": "TWIST1 knockdown after Lipofectamine 2000 transfection of siRNA in MDA-MB-435S cells (western blot)", "type": "cell-based, human", "conditions": "unmodified vs passenger-strand modified si419", "experimental": "Transient transfection of MDA-MB-435S GFP+ffluc was carried out using LIPOFECTAMINE® 2000 (Thermo Fisher Scientific, Waltham, MA) according to the manufacturer's instructions. LIPOFECTAMINE® 2000 transfection was used to confirm the functionality of the siRNA (si419 and si494) prior to testing their efficacy with MSNs. Transfection of siRNA with MSNs was carried out by incubating the MSNs with the siRNA overnight at 4° C. while rotating the tube constantly. The mixture consisted of 7 parts MSN (diluted to 500 ng/ul in sterile PBS) to 1 part siRNA (diluted to 10 uM). The final concentration for of MSNs and siRNA applied to cells was 17.5 ng/ul and 50 nM, respectively.\nWestern Blot. Following siRNA treatment described above, cells were lifted from tissue culture wells with 0.25% trypsin, pelleted, and lysed in RIPA buffer. Protein concentration was determined using a BCA Assay (Thermo Fisher Scientific). A total of 30 μg of protein per lane was run on 4% stacking and 12% resolving polyacrylamide gels. Following gel electrophoresis, protein was transferred to Immobilon-P PVDF membrane (Millipore, Billerica, MA) using a Trans-Blot SD Semi-Dry Transfer Cell (Bio-Rad, Hercules, CA). Membranes were then blocked with 5% dry milk dissolved in 1×PBS with 0.1% Tween-20. Antibodies were diluted in blocking buffer (1:250 for anti-TWIST1 and 1:2,500 for anti-Actin). […]"}, "TWIST [2]": {"tested_on": "TWIST", "assay": "TWIST knockdown after MSN delivery of siRNA in ovarian cancer cell lines", "type": "cell-based", "experimental": "MSN design and delivery. Mesoporous silica nanoparticles (MSNs) were synthesized utilizing the sol-gel method as described previously. First, 250 mg 95% cetyltrimethylammonium bromide (CTAB) was dissolved in 120 ml of water with 875 μl 2M sodium hydroxide solution, at 80° C. Next, 1.2 ml of 98% tetraethylorthosilicate was added. After 15 min, 300 μl of 42% 3-(trihydroxysilyl) propyl methylphosphonate was added, and the mixture was stirred 2 hr. Particles were collected using centrifugation and washed with methanol. Acidic methanol was then used to remove any remaining CTAB surfactants. Zeta potential at 50 μg/mL was 43.75 mV [14]. All chemicals were obtained from Aldrich (St. Louis, MO). Particles were ˜120 nm in diameter, with 2.5 nm pores. Low molecular weight (1.8 kD branched polymer) polyethyleneimine (PEI) was electrostatically attached to the particle surface to provide a positive change to attract negatively charged siRNA [21]. To complex siRNA for in vitro experiments, 10 μl siRNA at 10 μM was mixed with 70 ul MSNs at 500 μg/ml and 20 μl water, and the mixture was incubated overnight at 4° C. on a roller. The following day, 100 μl of the MSN-siRNA complexes was added to each well of a 6-well plate containing 1900 μl normal medium.\n(§1) Western Blotting. Following siRNA treatment, cells were pelleted and lysed in RIPA buffer. Protein concentration was determined by BCA assay (Thermo Fisher). Following SDS-PAGE, protein was transferred to Amersham PVDF membrane (Genesee Scientific) using a BioRad Trans-Blot SD semi-dry transfer unit. Blots were then blocked in milk for one hour at room temperature or overnight at 4° C. Incubation with primary antibody took place for one hour at room temperature or overnight at 4° C. Antibodies were diluted in 5% milk, with 0.1-0.2% Tween-20. Antibodies used were TWIST 2c1a (Santa Cruz Biotechnology, Dallas, TX) at 1:250-1:500 dilution, β-Actin, A1978 (Sigma Aldrich, St. Louis, MO) at 1:2500-1:5000 dilution; and Horseradish Peroxidase (HRP) conjugated anti-mouse secondary antibodies. […]"}, "N-Cadherin mRNA": {"tested_on": "N-Cadherin mRNA", "assay": "qPCR after YTZ3-15 delivery of siTwist in SUM 1315: N-Cadherin", "type": "cell-based, human", "conditions": "delivered via YTZ3-15; after seven days", "experimental": "(§2) Cell Culture, Transfection, and Stable Cell Line Production. SUM 1315 breast cancer cells were obtained from ATCC (Manassas, VA). Cells were maintained at 37° C., 5% CO2, and 90% humidity in a tissue culture incubator. Media for SUM 1315 cells consisted of a 50-50 mixture of DMEM and F12 media, supplemented with 5 μg/ml insulin, 10 ng/ml EGF, 5% fetal bovine serum, and 1% penicillin/streptomycin. Cells were passaged using 0.25% trypsin (Genesee Scientific, San Diego, CA) every 2-3 days as they reached confluency. […]\n(§3) Quantitative PCR. […] RNA quantity and quality was measured and analyzed (with 260/280 nm and 260/230 nm spectra measurements) using a NanoDrop ND-1000 (Thermo Fisher Scientific, Waltham, MA). […] Quantitative RT-PCR was performed in quadruplicate using Maxima SYBR Green Master Mix (Thermo Fisher Scientific, Waltham, MA) in 25 μl reactions. […] Data were analyzed using Bio-Rad iQ5 software using the 2^−ΔΔ^Ct method and normalized to Actin. […]"}, "Vimentin mRNA": {"tested_on": "Vimentin mRNA", "assay": "qPCR after YTZ3-15 delivery of siTwist in SUM 1315: Vimentin", "type": "cell-based, human", "conditions": "delivered via YTZ3-15; after one day", "experimental": "as §2, §3"}, "TWIST1 [3]": {"tested_on": "TWIST1", "assay": "TWIST1 knockdown after Lipofectamine 2000 transfection in SUM 1315", "type": "cell-based, human", "experimental": "as §2, §3\nWestern Blot. […] Cells were pelleted, lysed in RIPA buffer, and protein concentration was determined using the BCA Assay (Thermo Fisher Scientific, Waltham, MA). […]"}, "TWIST [4]": {"tested_on": "TWIST", "assay": "TWIST knockdown after Lipofectamine 2000 transfection in A2780R (western blot)", "type": "cell-based", "conditions": "over three days post transfection", "experimental": "Cell Culture. A2780R and all derivatives of Ovcar8 were grown in RPMI 1640 (Genesee Scientific, San Diego, CA) in a tissue culture incubator at 37° C., 5% CO2, and 90% humidity. Growth medium was supplemented with 10% fetal bovine serum and 1% penicillin/streptomycin. Cells were passaged every 2-4 days using 0.25% trypsin (Genesee Scientific). Where indicated, cells were transfected with Lipofectamine 2000 (Thermo Fisher, Waltham, MA) according to the manufacturer's instructions. A2780R cells are a cisplatin resistant derivative of A2780.\nas §1"}, "TWIST [5]": {"tested_on": "TWIST", "assay": "TWIST knockdown after YTZ3-15 delivery of siRNA in ovarian cancer cell lines", "type": "cell-based", "experimental": "PAMAM dendrimer design and delivery. The polyamidoamine (PAMAM) dendrimer used in this study is the […] third generation dendrimer, illustrated in FIG. 16A and previously described. To complex the dendrimer with siRNA, YTZ3-15 at 240 μM was mixed with […] in OptiMEM Low Serum Medium (Thermo Fisher). Upon complexing with siRNA, dendrimers form micelle structures with siRNA at the surface and the hydrophobic tails sequestered in the core (FIG. 16B). 14.6 μl YTZ3-15 and 10 μl siRNA were used per well of a 6-well plate. Final concentrations of YTZ3-15 and siRNA once added to cells were 1.75 μM and 50 nm, respectively. Where indicated, 3.5 μM YTZ3-15 and 100 nm siRNA were used for Ovcar8.\nWestern Blotting. Following siRNA treatment, cells were pelleted and lysed in RIPA buffer. Protein concentration was determined by BCA assay (Thermo Fisher). Following SDS-PAGE, protein was transferred to Amersham PVDF membrane (Genesee Scientific) using a BioRad Trans-Blot SD semi-dry transfer unit. Blots were then blocked in milk for one hour at room temperature or overnight at 4° C. Incubation with primary antibody took place for one hour at room temperature or overnight at 4° C. Antibodies were diluted in 5% milk, with 0.1-0.2% Tween-20. Antibodies used were TWIST 2c1a (Santa Cruz Biotechnology, Dallas, TX) at 1:250-1:500 dilution, β-Actin, A1978 (Sigma Aldrich, St. Louis, MO) at 1:2500-1:5000 dilution; and Horseradish Peroxidase (HRP) conjugated anti-mouse secondary antibodies. For film-based westerns, Blue Devil film (Genesee Scientific) and ECL Plus chemiluminescent substrate (Thermo Fisher) were used to detect protein. For digital westerns, the Syngene Pxi4 digital blot imager and Michigan Diagnostics FemtoGlow chemilumescent substrate were used."}},
  "note": "[iaB] = inverted abasic ribose cap; [2sU] = 2-thio-2'-deoxyuridine; d = 2'-deoxy (DNA); m = 2'-O-methyl; r = 2'-OH (RNA)",
  "data": [
    {"compound": "O=c1cc(N2CCOCC2)oc2c(-c3ccccc3)cccc12", "note": "[LY294002]", "values": [
      {"measurement": "greater cell death vs cisplatin alone", "setting": "Ov8GFP-TWIST1 cells; combination with 5 μM cisplatin", "result": 15, "unit": "%"},
      {"measurement": "greater cell death vs cisplatin alone", "setting": "Ov8GFP-TWIST1 cells; combination with 10 μM cisplatin", "result": 25, "unit": "%"}
    ]},
    {"compound": "si419H: chemically modified si419 duplex: 2′-O-methyl and inverted abasic ribose on passenger strand (SEQ ID NO:11; guide SEQ ID NO:12) (sense GGACAAGCUGAGCAAGAUU; antisense AAUCUUGCUCAGCUUGUCCUU; siRNA; sense: sugars from the 5' end r17 m2, [iaB] at 5' end, 3' end, backbone not given here; antisense: sugars from the 5' end r16 d1 r4, [2sU] at 17, backbone not given here)", "values": [
      {"measurement": "knockdown (efficiency, FIG. 6)", "setting": "TWIST1 [1]", "result": "approximately 80%"},
      {"measurement": "TWIST knockdown", "setting": "TWIST [2]; Ovcar8-IP, MSNs", "result": "robust knockdown of TWIST even after 24 hours"}
    ]},
    {"compound": "si494: anti-TWIST siRNA; passenger 5′-GCGACGAGCUGGACUCCAA-3′ (SEQ ID No: 3), guide 5′-UUGGAGUCCAGCUCGUCGCUU-3′ (SEQ ID No: 4) (listed as RNA, chemistry not fully specified)", "values": [
      {"measurement": "N-Cadherin mRNA decrease", "setting": "N-Cadherin mRNA", "result": "approximately 90%"},
      {"measurement": "Vimentin mRNA level", "setting": "Vimentin mRNA", "result": "nearly undetectable"},
      {"measurement": "TWIST1 knockdown (protein and mRNA)", "setting": "TWIST1 [3]", "result": "slightly more knockdown than siTwistA"},
      {"measurement": "TWIST expression", "setting": "TWIST [4]", "result": "completely inhibit TWIST expression"},
      {"measurement": "TWIST knockdown", "setting": "TWIST [5]; A2780R", "result": "successfully knocked down TWIST"},
      {"measurement": "TWIST knockdown", "setting": "TWIST [5]; Ovcar8, double the usual dose (100 nM siRNA)", "result": "minimal"},
      {"measurement": "TWIST knockdown", "setting": "TWIST [2]; A2780R and Ovcar8, loaded onto MSNs", "result": "robust TWIST knockdown lasting one week post transfection"}
    ]}
  ]
}
